We go through 19 compounds from patent US20170129903A1, “COMPOUNDS COMPRISING 1,1a,2,5a-TETRAHYDROSPIRO[INDOLE-3,2a-PYRROLE]-2,5a-DIONE SYSTEM AS INHIBITORS P53-MDM2 PROTEIN-PROTEIN INTERACTION” (ADAMED SP. Z O.O., priority 2014, published 2017).

For assay [1], the system named is SJSA-1 osteosarcoma cell line. The experiment in a line: MTT cell viability assay. As to conditions: 72 h incubation, average of 2-5 experiments. The class given is cell-based. How it is done: The effect of the invented p53-Mdm2 inhibitors on cell viability has been assessed using MTT assay. It is a colorimetric assay that measures conversion of tetrazolium ring of the soluble yellow dye (MTT) into insoluble purple formazan. This process is catalysed solely in mitochondrial dehydrogenases of living cells.
Cells were seeded on 96-well plates and then treated with successive dilutions of tested compounds. After 72 h incubation, MTT was added to the final concentration 0.5 mg/ml. The cells were further incubated for the next 4 h. Then the solution was drained and the remaining formazan crystals were dissolved in 100 μl DMSO. […] All the MTT experiments were independently repeated 2-5 times. Dose-dependent binding curves and IC50 values were calculated using GraphPad Prism 5.

The target of assay [2] is T1, p53-Mdm2 interaction (N-terminal domain of Mdm2 protein, amino acids 1-111) (Homo sapiens, UniProt Q00987).
T1 construct: N-terminal domain of Mdm2 protein (amino acids 1-111)
Put plainly: Fluorescence polarization (FP) binding assay of p53-Mdm2 interaction. As to conditions: for Ki: FP assay, 130 nM Mdm2, FAM-labelled p53 peptide, Ki transformed from IC50 using Kenakin equation; for times more potent than the corresponding S/R (racemic) mixture: enantiopure S isomers vs racemic Compounds 71, 93 and 72, respectively. As for the experimental part: The inhibition of p53-Mdm2 interaction was measured using a fluorescence polarization (FP) binding assay. FP measures the rotational movement of molecules in a homogenous suspension. For this assay, N-terminal domain of Mdm2 protein (amino acids 1-111) is combined with a fluorescein-labelled (FAM) peptide derived from p53 trans-activation domain. Upon excitation of the fluorescent ligand with linearly polarized light, […]. If the peptide is bound by Mdm2, rotation will slow down and the perpendicular component will decrease. Disruption of the formation of the peptide-Mdm2 complex due to an inhibitor molecule binding to the p53 binding site of Mdm2 results in faster rotation of the peptide.
Fluorescence polarization experiments were read on Tecan Infinite M1000 reader with the 470 nm excitation and 520 nm emission filters for fluorescein. The fluorescence polarization was measured in black 96-well plates (Corning, CLS3991) in room temperature. Purity of Mdm2 was controlled at >95%. Reaction buffer was optimized by adding 5 mM DTT and 0.1% zwitterionic detergent CHAPS to reduce effect of nonspecific interactions.
The test was performed by combining successive dilution of compounds diluted in dimethyl sulfoxide (DMSO, 5% final concentration) with 130 nM Mdm2 in reaction buffer (PBS, 0.1% CHAPS, 5 mM DTT (dithiothreitol)). After 15 minutes of incubation in room temperature […] FAM-labelled peptide was added. Final reading was performed after 90 minutes of incubation. Dose-dependent binding curves and IC50 values were calculated using GraphPad Prism5 and next transformed to Ki values using Kenakin equation.
Background: In fluorescence polarisation assays a small probe gives low polarisation when free and higher when bound to something large.

In general, IC50 refers to the concentration that inhibits the measured activity by half. What is called Ki is the dissociation constant of the complex between target and ligand, obtained from inhibition or displacement. Lower therefore signals a stronger hold on the target.

T1 sequence (Q00987 1-111): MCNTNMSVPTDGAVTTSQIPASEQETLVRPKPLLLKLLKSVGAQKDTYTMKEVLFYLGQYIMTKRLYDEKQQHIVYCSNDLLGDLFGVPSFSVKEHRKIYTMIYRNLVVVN

Compound `CS(=O)(=O)OC1=C(c2ccccc2)C2(C(=O)Nc3cc(Cl)ccc32)N(c2cccc(Cl)c2)C1=O` (stereo not shown) [Compound 52, 6-chloro-1′-(3-chlorophenyl)-2,5′-dioxo-3′-phenyl-1,1′,2,5′-tetrahydrospiro[indole-3,2′-pyrrole]-4′-yl methanesulfonate] registered an IC50 in assay [1] (Homo sapiens, SJSA-1, 72 h) of 39.6 µM. The same compound yielded a Ki in assay [2] of 800 nM.

For the compound `CCOC(=O)CNC1=C(c2ccccc2)C2(C(=O)Nc3cc(Cl)ccc32)N(c2cccc(Cl)c2)C1=O` (stereo not shown) [Compound 48, ethyl 2-{[6-chloro-1′-(3-chlorophenyl)-2,5′-dioxo-3′-phenyl-1,1′,2,5′-tetrahydrospiro[indole-3,2′-pyrrole]-4′-yl]amino}acetate], the IC50 in assay [1] (Homo sapiens, SJSA-1, 72 h) amounted to 28 µM. Besides, in assay [2], the affinity corresponds to a Ki of 205 nM.

In assay [1] (Homo sapiens, SJSA-1, 72 h), `CC(C)c1[nH]nc2c1C1(C(=O)Nc3cc(Cl)ccc31)N(c1cc(Cl)ccc1O)C2=O` (stereo not shown) [Compound 24, 6-chloro-5′-(5-chloro-2-hydroxyphenyl)-3′-(propan-2-yl)-1,2,5′,6′-tetrahydro-2′H-spiro[indole-3,4′-pyrrolo[3,4-c]pyrazole]-2,6′-dione] had an IC50 of 33.5 µM. Besides, the Ki in assay [2] amounted to 54 nM.

In turn, `COc1ccc(C(N)=O)cc1-n1cc2c(c1C(C)C)[C@@]1(C(=O)Nc3cc(Cl)ccc31)N(c1cc(Cl)ccc1C)C2=O` [Compound 110, 3-[(3S)-6-chloro-2′-(5-chloro-2-methylphenyl)-2,3′-dioxo-6′-(propan-2-yl)-1,2,3′,5′-tetrahydro-2′H-spiro[indole-3,1′-pyrrolo[3,4-c]pyrrole]-5′-yl]-4-methoxybenzamide] yielded a half-maximal inhibitory concentration (IC50) in assay [1] (Homo sapiens, SJSA-1, 72 h) of 0.35 µM. The compound also came in with a Ki in assay [2] of 1.7 nM.

For the compound `COc1ccc(C(=O)NCCO)cc1-n1cc2c(c1C(C)C)C1(C(=O)Nc3cc(Cl)ccc31)N(c1cc(Cl)ccc1C)C2=O` (stereo not shown) [Compound 100, 3-[6-chloro-2′-(5-chloro-2-methylphenyl)-2,3′-dioxo-6′-(propan-2-yl)-1,2,3′,5′-tetrahydro-2′H-spiro[indole-3,1′-pyrrolo [3,4-c]pyrrole]-5′-yl]-N-(2-hydroxyethyl)-4-methoxybenzamide], the IC50 in assay [1] (Homo sapiens, SJSA-1, 72 h) was 1.21 µM. In assay [2], this compound yielded a Ki of 3.5 nM.

In turn, `COc1ccc(N)cc1-n1cc2c(c1C(C)C)C1(C(=O)Nc3cc(Cl)ccc31)N(c1cc(Cl)ccc1C)C2=O` (stereo not shown) [Compound 96, 5′-(5-amino-2-methoxyphenyl)-6-chloro-2′-(5-chloro-2-methylphenyl)-6′-(propan-2-yl)-1,2,3′,5′-tetrahydro-2′H-spiro [indole-3,1′-pyrrolo[3,4-c]pyrrole]-2,3′-dione] returned an IC50 in assay [1] (Homo sapiens, SJSA-1, 72 h) of 0.3 µM. In assay [2], this compound gave a Ki of 4 nM.

`COC(=O)/C=C/COc1ccc(Cl)cc1N1C(=O)c2nn(-c3ccccc3OC)c(C(C)C)c2C12C(=O)Nc1cc(Cl)ccc12` (stereo not shown) [Compound 62, methyl (2E)-4-{4-chloro-2-[6-chloro-2′-(2-methoxyphenyl)-2,6′-dioxo-3′-(propan-2-yl)-1,2,5′,6′-tetrahydro-2′H-spiro[indole-3,4′-pyrrolo[3,4-c]pyrazole]-5′-yl]phenoxy}but-2-enoate] displayed an IC50 in assay [1] (Homo sapiens, SJSA-1, 72 h) of 2.23 µM. In assay [2], this compound registered a Ki of 11 nM.

On to `COc1ccc(CSC2=C(O)C(=O)N(c3cccc(Cl)c3)C23C(=O)Nc2cc(Cl)ccc23)cc1` (stereo not shown) [Compound 59, 6-chloro-1′-(3-chlorophenyl)-4′-hydroxy-3′-{[(4-methoxyphenyl)methyl]sulfanyl}-1,1′,2,5′-tetrahydrospiro[indole-3,2′-pyrrole]-2,5′-dione], for which half-maximal inhibition in assay [1] (Homo sapiens, SJSA-1, 72 h) (IC50) required 37.5 µM. The Ki in assay [2] was determined as 178 nM.

In assay [1], `COc1ccccc1-n1nc2c(c1C(C)C)[C@@]1(C(=O)Nc3cc(Cl)ccc31)N(c1cncc(Cl)c1)C2=O` [Compound 81, (3S)-6-chloro-5′-(5-chloropyridin-3-yl)-2′-(2-methoxyphenyl)-3′-(propan-2-yl)-1,2,5′,6′-tetrahydro-2′H-spiro-[indole-3,4′-pyrrolo[3,4-c]pyrazole]-2,6′-dione] displayed an IC50 of 0.8 µM. In assay [2], the Ki came to 2.2 nM and the “times more potent than the corresponding S/R (racemic) mixture” value is on record as “about 2 times”.

`CCc1ccccc1-n1nc2c(c1CC)C1(C(=O)Nc3cc(Cl)ccc31)N(c1cc(Cl)ccc1C)C2=O` (stereo not shown) [Compound 85, 6-chloro-5′-(5-chloro-2-methylphenyl)-3′-ethyl-2′-(2-ethylphenyl)-1,2,5′,6′-tetrahydro-2′H-spiro[indole-3,4′-pyrrolo [3,4-c]pyrazole]-2,6′-dione] showed an IC50 in assay [1] (Homo sapiens, SJSA-1, 72 h) of 13 µM. The Ki in assay [2] came out at 86 nM.

`CC1(c2[nH]nc3c2C2(C(=O)Nc4cc(Cl)ccc42)N(c2cccc(Cl)c2)C3=O)CC1` (stereo not shown) [Compound 19, 6-chloro-5′-(3-chlorophenyl)-3′-(1-methylcyclopropyl)-1,2,5′,6′-tetrahydro-2′H-spiro[indole-3,4′-pyrrolo[3,4-c]pyrazole]-2,6′-dione]: the IC50 in assay [1] (Homo sapiens, SJSA-1, 72 h) was found to be 22.3 µM. Also, the Ki in assay [2] came out at 64 nM.

`COc1ccc(-n2cc3c(c2C(C)C)[C@@]2(C(=O)Nc4cc(Cl)ccc42)N(c2cc(Cl)ccc2C)C3=O)c(OC)c1` [Compound 107, (3S)-6-chloro-2′-(5-chloro-2-methylphenyl)-5′-(2,4-dimethoxyphenyl)-6′-(propan-2-yl)-1,2,3′,5′-tetrahydro-2′H-spiro[indole-3,1′-pyrrolo[3,4-c]pyrrole]-2,3′-dione] came in with an IC50 in assay [1] (Homo sapiens, SJSA-1, 72 h) of 0.06 µM. Besides, in assay [2], the Ki stood at 1.9 nM and the “times more potent than the corresponding S/R (racemic) mixture” value is reported as “about 2 times”.

`CSc1ccccc1-n1nc2c(c1C(C)C)C1(C(=O)Nc3cc(Cl)ccc31)N(c1cc(Cl)ccc1C)C2=O` (stereo not shown) [Compound 77, 6-chloro-5′-(5-chloro-2-methylphenyl)-2′-[2-(methylsulfanyl)phenyl]-3′-(propan-2-yl)-1,2,5′,6′-tetrahydro-2′H-spiro[indole-3,4′-pyrrolo[3,4-c]pyrazole]-2,6′-dione]: the IC50 in assay [1] (Homo sapiens, SJSA-1, 72 h) worked out at 8.57 µM. The same compound came in with a Ki in assay [2] of 30 nM.

With `NC(=O)CSC1=C(c2ccccc2)C2(C(=O)Nc3cc(Cl)ccc32)N(c2cccc(Cl)c2)C1=O` (stereo not shown) [Compound 53, 2-[6-chloro-1′-(3-chlorophenyl)-2,5′-dioxo-3′-phenyl-1,1′,2,5′-tetrahydrospiro [indole-3,2′-pyrrole]-4′-ylsulfanyl] acetamide], in assay [1] (Homo sapiens, SJSA-1, 72 h), the half-maximal inhibitory concentration (IC50) worked out at 29.6 µM. Further, affinity in assay [2] was put at a Ki of 581 nM.

Turning to `COc1ccccc1-n1nc2c(c1C(C)C)C1(C(=O)Nc3cc(Cl)ccc31)N(c1cc(Cl)cnc1C)C2=O` (stereo not shown) [Compound 71, 6-chloro-5′-(5-chloro-2-methylpyridin-3-yl)-2′-(2-methoxyphenyl)-3′-(propan-2-yl)-1,2,5′,6′-tetrahydro-2′H-spiro[indole-3,4′-pyrrolo[3,4-c]pyrazole]-2,6′-dione], in assay [1] (Homo sapiens, SJSA-1, 72 h), the IC50 came out at 0.46 µM. This compound registered a Ki in assay [2] of 4.3 nM.

`Cc1ccc(Cl)cc1N1C(=O)c2cn(-c3cccc4c3OCO4)c(C(C)C)c2C12C(=O)Nc1cc(Cl)ccc12` (stereo not shown) [Compound 94, 5′-(2H-1,3-benzodioxol-4-yl)-6-chloro-2′-(5-chloro-2-methylphenyl)-6′-(propan-2-yl)-1,2,3′,5′-tetrahydro-2′H-spiro[indole-3,1′-pyrrolo[3,4-c]pyrrole]-2,3′-dione] returned an IC50 in assay [1] (Homo sapiens, SJSA-1, 72 h) of 0.93 µM. The Ki in assay [2] turned out to be 9.6 nM.

In turn, `CCc1ccccc1-n1nc2c(c1C(C)C)C1(C(=O)Nc3cc(Cl)ccc31)N(c1cc(Cl)ccc1C)C2=O` (stereo not shown) [Compound 67, 6-chloro-5′-(5-chloro-2-methylphenyl)-2′-(2-ethylphenyl)-3′-(propan-2-yl)-1,2,5′,6′-tetrahydro-2′H-spiro[indole-3,4′-pyrrolo [3,4-c]pyrazole]-2,6′-dione] returned an IC50 in assay [1] (Homo sapiens, SJSA-1, 72 h) of 12.4 µM. For the same compound, the inhibition constant (Ki) in assay [2] stood at 86 nM.

Turning to `O=C1C(O)=C(c2ccccc2)C2(C(=O)Nc3cc(Cl)c(Cl)cc32)N1c1cccc(Cl)c1` (stereo not shown) [Compound 43, 5,6-dichloro-1′-(3-chlorophenyl)-4′-hydroxy-3′-phenyl-1,1′,2,5′-tetrahydrospiro [indole-3,2′-pyrrole]-2,5′-dione], in assay [1] (Homo sapiens, SJSA-1, 72 h), the IC50 is 43.8 µM. Besides, in assay [2], the Ki turned out to be 650 nM.

In assay [1] (Homo sapiens, SJSA-1, 72 h), `O=C1C(O)=C(c2ccccc2)C2(C(=O)Nc3cc(Cl)ccc32)N1c1cc(Cl)ccc1F` (stereo not shown) [Compound 45, 6-chloro-1′-(5-chloro-2-fluorophenyl)-4′-hydroxy-3′-phenyl-1,1′,2,5′-tetrahydrospiro[indole-3,2′-pyrrole]-2,5′-dione] registered an IC50 of 29.9 µM. The compound further yielded a Ki in assay [2] of 36 nM.
